Test results from patent US8372876B2, “Method for improving memory in mammals” (The University of Houston System, priority 2007, dated 2013).
Entries after “also recorded” stand apart in the source; their conditions may differ.

What was measured:
[1] = tested on: zebrafish embryos; conditions: cited from earlier work
[2] = molecular target: T1, MT2 than for MT1 subtypes of melatonin receptors (Homo sapiens, UniProt P49286); conditions: MT2 versus MT1 selectivity; cited from earlier work
T1 sequence (P49286 1-362): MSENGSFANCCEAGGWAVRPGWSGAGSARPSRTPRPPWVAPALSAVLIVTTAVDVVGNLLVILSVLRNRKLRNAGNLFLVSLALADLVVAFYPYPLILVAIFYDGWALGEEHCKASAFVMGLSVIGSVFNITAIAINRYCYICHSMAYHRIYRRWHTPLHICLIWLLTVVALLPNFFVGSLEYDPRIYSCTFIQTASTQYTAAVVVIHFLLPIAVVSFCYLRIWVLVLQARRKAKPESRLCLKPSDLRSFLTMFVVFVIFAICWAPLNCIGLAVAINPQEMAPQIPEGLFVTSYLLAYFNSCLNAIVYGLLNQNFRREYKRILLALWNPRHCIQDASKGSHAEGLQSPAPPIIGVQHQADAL

[3] = tested on: Zebrafish (D. rerio); assay: active-avoidance conditioning in a shuttle box: learning (trials to criteria) and 24 h retention score; type: in vivo
Procedure: Zebrafish (D. rerio) were bred, raised and maintained by the experimenter at the University of Houston Animals Facility. Adult zebrafish are maintained in 2-liter modular aquaria (Marine Biotech) with continuous water exchange at 26-28° C. under 14:10 hours light:dark cycle. Eggs and larvae are maintained in beakers with daily water changes, under the same light:dark cycle and similar temperatures. Larval fish are fed with filtered paramecium. All animals, juvenile (>15 days) and adults are fed three times a day with live brine shrimp or flake. The *AB strain was originally obtained from the University of Oregon. All protocols were approved by the University of Houston Institutional Animal Care Use Committee. Zebrafish are trained on an active-avoidance conditioning paradigm using a modified shuttle box. Zebrafish must cross a hurdle to avoid electric shocks (3V; unconditioned stimulus) administered via electrodes 10 seconds after the onset of the conditioned stimulus which was a dim red light. Dim red lights are placed at the extremity of each compartment of the shuttle box. The light signal was kept on during each cycle lasting for 20 seconds in one compartment; subsequently, the conditioned and unconditioned stimuli changed to the other side of the shuttle box. Zebrafish must learn to escape the dark compartment and maintain in the compartment having the light stimulus on for the remaining trial period. Animals that respond correctly to the light signals in eight out of ten consecutive trials during the training period are designated learners. Training was terminated once Zebrafish achieve the learning criteria (i.e. swimming the compartment where the stimulus light was on and remain there until the light was switched off). […] Animals are tested 24 hours later under identical conditions to test for retention of the learned task. To quantitatively evaluate the ability of each learner to recall the active avoidance conditioning paradigm, a retention score was calculated using the algorithm of Piront and Schmidt [formula] The number of trials required to reach the learning criteria during the test session was subtracted from number of trials required to reach the learning criteria in the training session, divided by the number of trials in the test plus training sessions. Retention scores range from 0 to 1.0. […] Melatonin Blocks Long-Term Memory Formation During the Subjective Day This melatonin effect was tested by taking animals originally under 14:10 hours light:dark cycles and exposing them to constant darkness for 4 days. On the 3rd day of constant darkness and one hour prior to training at CT7 (corresponds to 4 pm) animals were bathed in increasing concentrations of melatonin (1 μM, 10 μM, 50 μM and 100 μM). Animals were then trained at CT8 for active avoidance conditioning and tested 24 hours later on the 4th day of constant darkness at CT8 for long-term memory formation. […] To test whether melatonin blocks long-term memory formation via melatonin receptor mediated signaling pathway, the following experiments were performed. Animals in their original 14:10 hours light:dark cycles were set under free running conditions of constant darkness and temperature (25° C.) for 4 days. […] Treatments comprising of melatonin and either of its antagonists (luzindole or K-185) do improve the retention score, going from 0.1 with melatonin alone to about 0.4 in the presence of a mixture of melatonin and luzindole and to about 0.3 in the presence of a mixture of melatonin and K-185. […] This means that the inhibitory action of melatonin was mediated via a melatonin receptor-signaling pathway. […] This effect was tested by blocking night time melatonin receptor mediated signaling pathways with increased concentrations of melatonin receptor antagonist, such as luzindole. Animals in 14:10 hours light:dark cycles were exposed to constant darkness and temperature (25° C.) for 4 days. […]

[4] = tested on: C3H/HeN mice; conditions: more pronounced effect at midnight than midday; cited from earlier work

CCCC(=O)NCCc1c2n(c3ccc(OC)cc13)CCCc1ccccc1-2 [K-185, N-butanoyl-2-(5,6,7-trihydro-11-methoxy-benzo[3,4]cyclohept[2,1-a]indol-13-yl) ethanamine]
antagonism of the effect of melatonin on zebrafish development [1]: blocking the effect of melatonin on zebrafish development
higher affinity for MT2 than for MT1 [2]: > 140 fold

CC(=O)NCCc1c(Cc2ccccc2)[nH]c2ccccc12 [luzindole, N-Acetyl-2-benzyltryptamine]
retention score ([3]; 0.5 μM luzindole, 1 h at CT15, trained CT16, tested 24 h later (subjective night), FIG. 4b): less than 0.1
retention score ([3]; 1 μM luzindole, 1 h at CT15, trained CT16, tested 24 h later (subjective night), FIG. 4b): 0.25
number of trials to reach learning criteria ([3]; luzindole at increasing concentration, 1 h at CT15, trained CT16 (subjective night), constant darkness, FIG. 4a): No significant difference; also recorded: remains the same
duration of immobility during swimming [4]: decreases the duration of immobility during swimming

COc1ccc2[nH]cc(CCNC(C)=O)c2c1 [melatonin, 5-OCH3 N-acetyltryptamine]
retention score ([3]; 100 μM melatonin, 1 h at CT7, trained CT8, tested 24 h later (subjective day), FIG. 2b): significantly reduced
long-term memory formation (retention score) ([3]; low concentrations of melatonin, 1 h at CT7, tested 24 h after training at CT8): do not significantly block long-term memory formation
retention score ([3]; melatonin concentration over 50 μM, 1 h at CT7, tested 24 h after training at CT8 (subjective day)): around 0.1
